{
  "source": "patent EP0377642B1",
  "about": "“HERBICIDES FOR WEED CONTROL IN RICE” (E.I. DU PONT DE NEMOURS AND COMPANY, priority 1987, dated 1989)",
  "assay_type_in_all_cases": "in vivo",
  "key": {"[1]": {"tested_on": "Cyperus iria", "test": "Field test with Bensulfuron methyl in direct seeded rice (Table 10)", "conditions": "10 = complete control", "source_text": "(§1) Methyl 2-[[[[(4-methoxy-6-methyl-1,3,5-triazin-2-yl)amino]carbonyl]amino]sulfonyl]benzoate (Compound 1) and mixtures thereof with other compounds were applied as a spray (using a hand sprayer) to rice (either transplanted or direct seeded) in several rice growing areas in Southeast Asia and in the U.S. Tables 1-28 contain the results of these tests and clearly exemplify the utility of this invention. The details of each application are included in the appropriate table. [drawing 2]"}, "[2]": {"tested_on": "Marsilea crenata", "test": "Field test with Bensulfuron methyl in direct seeded rice (Table 10)", "conditions": "10 = complete control", "source_text": "as §1"}, "[3]": {"tested_on": "Sphenoclea zeylanica", "test": "Field test with Bensulfuron methyl in direct seeded rice (Table 10)", "conditions": "10 = complete control", "source_text": "as §1"}, "[4]": {"tested_on": "WEED", "test": "Effects in combination with Bensulfuron Methyl and Thiobencarb or Pretilachlor on weed control (Table 25)", "conditions": "rate 25 g ai/ha, scale 0 to 10, treated at 2.0 leaf stage, evaluated four weeks later", "source_text": "as §1"}, "[5]": {"tested_on": "direct seeded rice", "test": "Field test with Bensulfuron methyl in direct seeded rice, yield (Table 10)", "source_text": "as §1"}, "[6]": {"tested_on": "Cyperus difformis", "test": "Field test applied at 7 DAS in direct seeded rice (Table 11)", "conditions": "scale 0-10", "source_text": "as §1"}, "[7]": {"tested_on": "Sphenoclea zeylanica", "test": "Field test applied at 7 DAS in direct seeded rice (Table 11)", "conditions": "scale 0-10", "source_text": "as §1"}, "[8]": {"tested_on": "rice", "test": "Effects in combination with Bensulfuron Methyl and Thiobencarb or Pretilachlor on rice growth (Table 23)", "conditions": "rate 25 g ai/ha; var. Koshihikari, applied 7 days after transplanting, rated 21 days after application", "source_text": "as §1"}, "[9]": {"tested_on": "Barnyardgrass (Echinochloa crus-galli)", "test": "Field test applied 7 DAS in direct seeded rice in the Philippines, cover (Table 14)", "conditions": "47 DAA", "source_text": "as §1"}, "[10]": {"tested_on": "SEDGE", "test": "Field test applied 7 DAS in direct seeded rice in the Philippines, cover (Table 14)", "conditions": "47 DAA", "source_text": "as §1"}, "[11]": {"tested_on": "FIMBRISTYLIS MILIACEA", "test": "Field test applied at 18 DAS in direct seeded rice (Table 12)", "conditions": "scale 0-10", "source_text": "as §1"}, "[12]": {"tested_on": "Cyperus iria", "test": "Field test applied at 18 DAS in direct seeded rice (Table 12)", "conditions": "scale 0-10", "source_text": "as §1"}, "[13]": {"tested_on": "Jussiaea linifolia", "test": "Field test applied at 18 DAS in direct seeded rice (Table 12)", "conditions": "scale 0-10", "source_text": "as §1"}, "[14]": {"tested_on": "Sphenoclea zeylanica", "test": "Field test applied at 18 DAS in direct seeded rice (Table 12)", "conditions": "scale 0-10", "source_text": "as §1"}, "[15]": {"tested_on": "WEED", "test": "Field test applied 7 DAS in direct seeded rice in the Philippines, weed cover (Table 14)", "conditions": "47 DAA", "source_text": "as §1"}, "[16]": {"tested_on": "Cyperus iria", "test": "Field test applied at 25 DAS in direct seeded rice (Table 13)", "conditions": "scale 0-10", "source_text": "as §1"}, "[17]": {"tested_on": "Sphenoclea zeylanica", "test": "Field test applied at 25 DAS in direct seeded rice (Table 13)", "conditions": "scale 0-10", "source_text": "as §1"}},
  "data": [
    {"smiles": "COC(=O)c1ccccc1CS(=O)(=O)NC(=O)Nc1nc(OC)cc(OC)n1", "note": "[Bensulfuron methyl, methyl 2-[[[[[(4,6-dimethoxy-2-pyrimidinyl)amino]carbonyl]amino]sulfonyl]methyl]benzoate]", "values": [
      {"measurement": "WEEDS CONTROL at 4 WAA CI", "setting": "[1]; 10 GAI/HA", "value": 2},
      {"measurement": "WEEDS CONTROL at 4 WAA CI", "setting": "[1]; 20 GAI/HA", "value": 8},
      {"measurement": "WEEDS CONTROL at 4 WAA MC", "setting": "[2]; 10 GAI/HA", "value": 0},
      {"measurement": "WEEDS CONTROL at 4 WAA MC", "setting": "[2]; 20 GAI/HA", "value": 3.33},
      {"measurement": "WEEDS CONTROL at 4 WAA SZ", "setting": "[3]; 10 GAI/HA", "value": 0},
      {"measurement": "WEEDS CONTROL at 4 WAA SZ", "setting": "[3]; 20 GAI/HA", "value": 6},
      {"measurement": "WEED CONTROL RATINGS CD", "setting": "[4]; Cyperus difformis", "value": 10},
      {"measurement": "WEED CONTROL RATINGS CS", "setting": "[4]; Cyperus serotinus", "value": 2},
      {"measurement": "WEED CONTROL RATINGS EO", "setting": "[4]; Echinochloa oryzicola", "value": 1},
      {"measurement": "WEED CONTROL RATINGS BL", "setting": "[4]; Lindernia pyxidaria", "value": 9},
      {"measurement": "WEED CONTROL RATINGS MV", "setting": "[4]; Monochoria vaginalis", "value": 9},
      {"measurement": "WEED CONTROL RATINGS SP", "setting": "[4]; Sagittaria pygmaea", "value": 8},
      {"measurement": "WEED CONTROL RATINGS SJ", "setting": "[4]; Scirpus juncoides", "value": 5},
      {"measurement": "YIELD", "setting": "[5]; 10 GAI/HA", "value": 3.04, "unit": "TONS/HA"},
      {"measurement": "YIELD", "setting": "[5]; 20 GAI/HA", "value": 3.34, "unit": "TONS/HA"},
      {"measurement": "WEED CONTROL at 6 WAA CD", "setting": "[6]; 10 GM.A.I./HA", "value": 10},
      {"measurement": "WEED CONTROL at 6 WAA CD", "setting": "[6]; 15 GM.A.I./HA", "value": 10},
      {"measurement": "WEED CONTROL at 6 WAA CD", "setting": "[6]; 20 GM.A.I./HA", "value": 10},
      {"measurement": "WEED CONTROL at 6 WAA CD", "setting": "[6]; 30 GM.A.I./HA", "value": 10},
      {"measurement": "WEED CONTROL at 6 WAA SZ", "setting": "[7]; 10 GM.A.I./HA", "value": 10},
      {"measurement": "WEED CONTROL at 6 WAA SZ", "setting": "[7]; 15 GM.A.I./HA", "value": 10},
      {"measurement": "WEED CONTROL at 6 WAA SZ", "setting": "[7]; 20 GM.A.I./HA", "value": 10},
      {"measurement": "WEED CONTROL at 6 WAA SZ", "setting": "[7]; 30 GM.A.I./HA", "value": 10},
      {"measurement": "CROP TOLERANCE DW (Dry weight relative to untreated check)", "setting": "[8]", "value": 79, "unit": "%"},
      {"measurement": "CROP TOLERANCE PH (Plant height relative to untreated check)", "setting": "[8]", "value": 89, "unit": "%"},
      {"measurement": "CROP TOLERANCE VA (Visual crop injury)", "setting": "[8]", "value": 2.5, "unit": "%"},
      {"measurement": "% BYG COVER", "setting": "[9]; 8.25 G AI/HA", "value": 29, "unit": "%"},
      {"measurement": "% BYG COVER", "setting": "[9]; 12.0 G AI/HA", "value": 17, "unit": "%"},
      {"measurement": "% BYG COVER", "setting": "[9]; 16.50 G AI/HA", "value": 28, "unit": "%"},
      {"measurement": "% SEDGE COVER", "setting": "[10]; 8.25 G AI/HA", "value": 4, "unit": "%"},
      {"measurement": "% SEDGE COVER", "setting": "[10]; 12.0 G AI/HA", "value": 2, "unit": "%"},
      {"measurement": "% SEDGE COVER", "setting": "[10]; 16.50 G AI/HA", "value": 2, "unit": "%"},
      {"measurement": "WEED CONTROL at 6 WAA FM", "setting": "[11]; 10 GM.A.I./HA", "value": 10},
      {"measurement": "WEED CONTROL at 6 WAA FM", "setting": "[11]; 15 GM.A.I./HA", "value": 9.67},
      {"measurement": "WEED CONTROL at 6 WAA FM", "setting": "[11]; 20 GM.A.I./HA", "value": 10},
      {"measurement": "WEED CONTROL at 6 WAA FM", "setting": "[11]; 30 GM.A.I./HA", "value": 10},
      {"measurement": "WEED CONTROL at 6 WAA CI", "setting": "[12]; 10 GM.A.I./HA", "value": 6.67},
      {"measurement": "WEED CONTROL at 6 WAA CI", "setting": "[12]; 15 GM.A.I./HA", "value": 9.0},
      {"measurement": "WEED CONTROL at 6 WAA CI", "setting": "[12]; 20 GM.A.I./HA", "value": 9.33},
      {"measurement": "WEED CONTROL at 6 WAA CI", "setting": "[12]; 30 GM.A.I./HA", "value": 9.67},
      {"measurement": "WEED CONTROL at 6 WAA JL", "setting": "[13]; 10 GM.A.I./HA", "value": 8.0},
      {"measurement": "WEED CONTROL at 6 WAA JL", "setting": "[13]; 15 GM.A.I./HA", "value": 7.67},
      {"measurement": "WEED CONTROL at 6 WAA JL", "setting": "[13]; 20 GM.A.I./HA", "value": 9.50},
      {"measurement": "WEED CONTROL at 6 WAA JL", "setting": "[13]; 30 GM.A.I./HA", "value": 8.67},
      {"measurement": "WEED CONTROL at 6 WAA SZ", "setting": "[14]; 10 GM.A.I./HA", "value": 5.67},
      {"measurement": "WEED CONTROL at 6 WAA SZ", "setting": "[14]; 15 GM.A.I./HA", "value": 6.67},
      {"measurement": "WEED CONTROL at 6 WAA SZ", "setting": "[14]; 20 GM.A.I./HA", "value": 5.67},
      {"measurement": "WEED CONTROL at 6 WAA SZ", "setting": "[14]; 30 GM.A.I./HA", "value": 9.67},
      {"measurement": "% WEED COVER", "setting": "[15]; 8.25 G AI/HA", "value": 29, "unit": "%"},
      {"measurement": "% WEED COVER", "setting": "[15]; 12.0 G AI/HA", "value": 20, "unit": "%"},
      {"measurement": "% WEED COVER", "setting": "[15]; 16.50 G AI/HA", "value": 28, "unit": "%"},
      {"measurement": "WEED CONTROL at 6 WAA CI", "setting": "[16]; 10 GM.A.I./HA", "value": 9.67},
      {"measurement": "WEED CONTROL at 6 WAA CI", "setting": "[16]; 15 GM.A.I./HA", "value": 9.83},
      {"measurement": "WEED CONTROL at 6 WAA CI", "setting": "[16]; 20 GM.A.I./HA", "value": 10},
      {"measurement": "WEED CONTROL at 6 WAA CI", "setting": "[16]; 30 GM.A.I./HA", "value": 10},
      {"measurement": "WEED CONTROL at 6 WAA SZ", "setting": "[17]; 10 GM.A.I./HA", "value": 9.17},
      {"measurement": "WEED CONTROL at 6 WAA SZ", "setting": "[17]; 15 GM.A.I./HA", "value": 9.80},
      {"measurement": "WEED CONTROL at 6 WAA SZ", "setting": "[17]; 20 GM.A.I./HA", "value": 9.50},
      {"measurement": "WEED CONTROL at 6 WAA SZ", "setting": "[17]; 30 GM.A.I./HA", "value": 9.93}
    ]}
  ]
}
